Reference: patent US11236087B2, “Highly active pyrazolo-piperidine substituted indole-2-carboxamides active against the hepatitis B virus (HBV)” (AiCuris GmbH & Co. KG, priority 2017, dated 2022)
pEC50, pIC50: −log10 of the molar value. Read-outs that look alike come from different tables or passages of the source.

How the values were obtained:
HBV = experiment: Determination of HBV DNA from the supernatants of HepAD38 cells (anti-HBV activity); assay type: cell-based, hepatitis B virus; details: Hepatitis B virus, read-out: Cell Activity (EC50)
Method in brief: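 HepAD38 cells, tetracycline withdrawn to induce HBV, treated with serial half-log compound dilutions; on day 6 HBV DNA purified from filtered supernatant and quantified by real-time PCR against HBV plasmid standards; EC50 from relative copy numbers by non-linear regression, three experiments in triplicate.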

HBV core protein = biological target: T1, HBV core protein (UniProt P03146); experiment: Biochemical capsid assembly assay (fluorescence quenching); parameters: species or system hepatitis B virus; details: read-out: Assembly Activity (IC50); BODIPY-FL labelled core protein, 300 μM NaCl, read 6 min after start
T1 construct: fused on or other part: BODIPY-FL maleimide label on the C-terminal Cys150
Method in brief: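 Purified E. coli-expressed HBV core protein (aa 1-149 plus Cys150), BODIPY-FL maleimide-labelled, at 1.0-2.0 μM in 50 mM HEPES pH 7.5 with 0.5% DMSO was used. Compounds were tested at 8 concentrations (0.5-log dilutions from 100, 31.6 or 10 μM). Assembly was started with NaCl ([…]), and fluorescence quenching was read after 6 min (ex 477/em 525 nm). EC50 was determined by non-linear regression.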

[1] = Cell viability assay (AlamarBlue) in HepAD38 cells; details: human
[2] = 144 h, HBV DNA in HepAD38 supernatant, day 6, qPCR

T1 sequence (P03146 whole entry, looked up, the tested form may be a part): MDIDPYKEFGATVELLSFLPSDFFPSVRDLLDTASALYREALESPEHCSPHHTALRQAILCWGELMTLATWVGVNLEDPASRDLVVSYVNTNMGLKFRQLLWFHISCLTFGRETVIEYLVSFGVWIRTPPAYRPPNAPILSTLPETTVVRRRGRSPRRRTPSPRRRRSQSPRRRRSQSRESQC

SMILES	pEC50 (HBV; [2])	pIC50 (HBV core protein)	CC50 at 6 days [1]	pEC50 (HBV; HePAD38, 144 h)
CCNC(=O)c1n[nH]c2c1CN(C(=O)c1cc3ccccc3[nH]1)CC2 [Example 109, N-ethyl-5-(1H-indole-2-carbonyl)-1H,4H,5H,6H,7H-pyrazolo[4,3-c]pyridine-3-carboxamide]	4.60 to 6.00	5.00 to 5.30	> 100 µM	
O=C(c1cc2ccccc2[nH]1)N1CCc2[nH]nc(C(=O)N3CC[C@@H](O)C3)c2C1 [Example 156, (3R)-1-[5-(1H-indole-2-carbonyl)-1H,4H,5H,6H,7H-pyrazolo[4,3-c]pyridine-3-carbonyl]pyrrolidin-3-ol]	4.60 to 6.00	> 4.00	> 10 µM	
CN(C(=O)c1[nH]nc2c1CN(C(=O)c1cc3ccccc3[nH]1)CC2)C1(C)COC1 [Example 251, 5-(1H-indole-2-carbonyl)-N-methyl-N-(3-methyloxetan-3-yl)-2H,4H,5H,6H,7H-pyrazolo[4,3-c]pyridine-3-carboxamide]	> 6.00	> 5.30	> 10 µM	
CON(C)C(=O)c1n[nH]c2c1CN(C(=O)c1cc3c(C)cc(F)cc3[nH]1)CC2 [Example 128, 5-(6-fluoro-4-methyl-1H-indole-2-carbonyl)-N-methoxy-N-methyl-1H,4H,5H,6H,7H-pyrazolo[4,3-c]pyridine-3-carboxamide]	> 6.00	> 5.30	98 µM	
CN(C(=O)c1n[nH]c2c1CN(C(=O)c1cc3ccccc3[nH]1)CC2)C1(CCC(=O)O)CC1 [Example 245, 3-{1-[N-methyl 5-(1H-indole-2-carbonyl)-1H,4H,5H,6H,7H-pyrazolo[4,3-c]pyridine-3-amido]cyclopropyl}propanoic acid]	> 4.00	5.00 to 5.30	> 10 µM	
O=C(c1cc2ccccc2[nH]1)N1CCc2[nH]nc(C(=O)N3Cc4cn[nH]c4C3)c2C1 [Example 181, 2-(3-{1H,4H,5H,6H-pyrrolo[3,4-c]pyrazole-5-carbonyl}-1H,4H,5H,6H,7H-pyrazolo[4,3-c]pyridine-5-carbonyl)-1H-indole]	4.60 to 6.00	5.00 to 5.30	> 10 µM	
CN(C(=O)c1n[nH]c2c1CN(C(=O)c1cc3ccccc3[nH]1)CC2)C1CCCCC1 [Example 170, N-cyclohexyl-5-(1H-indole-2-carbonyl)-N-methyl-1H,4H,5H,6H,7H-pyrazolo[4,3-c]pyridine-3-carboxamide]	4.60 to 6.00	5.00 to 5.30	> 10 µM	
CC(=O)NCCN(C)C(=O)c1n[nH]c2c1CN(C(=O)c1cc3ccccc3[nH]1)CC2 [Example 149, N-(2-{1-[5-(1H-indole-2-carbonyl)-1H,4H,5H,6H,7H-pyrazolo[4,3-c]pyridin-3-yl]-N-methylformamido}ethyl)acetamide]	4.60 to 6.00	> 4.00	> 10 µM	
O=C(c1cc2c(F)ccc(F)c2[nH]1)N1CCc2n[nH]c(-c3cscn3)c2C1 [Example 17, 4,7-difluoro-2-[3-(1,3-thiazol-4-yl)-2H,4H,5H,6H,7H-pyrazolo[4,3-c]pyridine-5-carbonyl]-1H-indole]	> 6.00	> 5.30	> 10 µM	
O=C(c1cc2ccccc2[nH]1)N1CCc2[nH]nc(C(=O)N3CCOCC34CC4)c2C1 [Example 195, 2-(3-{7-oxa-4-azaspiro[2.5]octane-4-carbonyl}-1H,4H,5H,6H,7H-pyrazolo[4,3-c]pyridine-5-carbonyl)-1H-indole]	> 6.00	5.00 to 5.30	> 10 µM	
CC1Cc2[nH]nc(-c3cscn3)c2CN1C(=O)c1cc2c(Cl)cc(F)cc2[nH]1 (stereo not drawn) [Example 37, 4-chloro-6-fluoro-2-[6-methyl-3-(1,3-thiazol-4-yl)-1H,4H,5H,6H,7H-pyrazolo[4,3-c]pyridine-5-carbonyl]-1H-indole]	> 6.00	5.00 to 5.30	> 32 µM	
CCON=C(C)c1n[nH]c2c1CN(C(=O)c1cc3ccccc3[nH]1)CC2 [Example 273, ethoxy({1-[5-(1H-indole-2-carbonyl)-1H,4H,5H,6H,7H-pyrazolo[4,3-c]pyridin-3-yl]ethylidene})amine]	4.60 to 6.00	> 4.00	> 10 µM	
CN(CCO)C(=O)c1n[nH]c2c1CN(C(=O)c1cc3c(C(F)F)cc(F)cc3[nH]1)CC2 [Example 3, 5-[4-(difluoromethyl)-6-fluoro-1H-indole-2-carbonyl]-N-(2-hydroxyethyl)-N-methyl-1H,4H,5H,6H,7H-pyrazolo[4,3-c]pyridine-3-carboxamide]	> 6.00	> 5.30	> 10 µM	
O=C(c1cc2ccccc2[nH]1)N1CCc2[nH]nc(NCC3CC3)c2C1 [Example 79, N-(cyclopropylmethyl)-5-(1H-indole-2-carbonyl)-1H,4H,5H,6H,7H-pyrazolo[4,3-c]pyridin-3-amine]	4.60 to 6.00	5.00 to 5.30	> 100 µM	
Cc1cccc2[nH]c(C(=O)N3CCc4[nH]nc(C(=O)N(C)CCO)c4C3)cc12 [Example 63, N-(2-hydroxyethyl)-N-methyl-5-(4-methyl-1H-indole-2-carbonyl)-1H,4H,5H,6H,7H-pyrazolo[4,3-c]pyridine-3-carboxamide]	> 6.00	> 5.30	> 100 µM	
COCC1(N(C)C(=O)c2n[nH]c3c2CN(C(=O)c2cc4c(Cl)ccc(F)c4[nH]2)CC3)CC1 [Example 306, 5-(4-chloro-7-fluoro-1H-indole-2-carbonyl)-N-[1-(methoxymethyl)cyclopropyl]-N-methyl-1H,4H,5H,6H,7H-pyrazolo[4,3-c]pyridine-3-carboxamide]	> 6.00	> 5.30	> 10 µM	
NC(=O)c1n[nH]c2c1CN(C(=O)c1cc3ccccc3[nH]1)CC2 [Example 106, 5-(1H-indole-2-carbonyl)-1H,4H,5H,6H,7H-pyrazolo[4,3-c]pyridine-3-carboxamide]	> 4.00	> 4.00	> 100 µM	
CCc1cccc2[nH]c(C(=O)N3CCc4n[nH]c(-c5cscn5)c4C3)cc12 [Example 18, 4-ethyl-2-[3-(1,3-thiazol-4-yl)-2H,4H,5H,6H,7H-pyrazolo[4,3-c]pyridine-5-carbonyl]-1H-indole]	> 6.00	> 5.30	7.3 µM	
COCC1(N(C)C(=O)c2n[nH]c3c2CN(C(=O)c2cc4cc(F)c(F)cc4[nH]2)CC3)CC1 [Example 300, 5-(5,6-difluoro-1H-indole-2-carbonyl)-N-[1-(methoxymethyl)cyclopropyl]-N-methyl-1H,4H,5H,6H,7H-pyrazolo[4,3-c]pyridine-3-carboxamide]	> 6.00	> 5.30	> 10 µM	
O=C(NCCO)c1n[nH]c2c1CN(C(=O)c1cc3ccccc3[nH]1)CC2 [Example 107, N-(2-hydroxyethyl)-5-(1H-indole-2-carbonyl)-1H,4H,5H,6H,7H-pyrazolo[4,3-c]pyridine-3-carboxamide]	4.60 to 6.00	> 4.00	> 100 µM	
O=C(c1cc2ccccc2[nH]1)N1CCc2[nH]nc(C34CC(C3)C4)c2C1 [Example 343, 2-(3-{bicyclo[1.1.1]pentan-1-yl}-1H,4H,5H,6H,7H-pyrazolo[4,3-c]pyridine-5-carbonyl)-1H-indole]	> 6.00	> 5.30	> 10 µM	
CC(C)OC(=O)[C@H](C)NP(=O)(OCCN(C)C(=O)c1n[nH]c2c1CN(C(=O)c1cc3ccccc3[nH]1)CC2)Oc1ccccc1 (stereo partly drawn) [Example 71, propan-2-yl (2S)-2-{[(2-{1-[5-(1H-indole-2-carbonyl)-1H,4H,5H,6H,7H-pyrazolo[4,3-c]pyridin-3-yl]-N-methylformamido}ethoxy)(phenoxy)phosphoryl]amino}propanoate]		5.00 to 5.30	> 32 µM	4.60 to 6.00
CN(C(=O)c1n[nH]c2c1CN(C(=O)c1cc3ccccc3[nH]1)CC2)C1CCOC1 (stereo not drawn) [Example 189, 5-(1H-indole-2-carbonyl)-N-methyl-N-(oxolan-3-yl)-1H4H,5H,6H,7H-pyrazolo[4,3-c]pyridine-3-carboxamide]	4.60 to 6.00	> 4.00	> 10 µM	
CN(C(=O)c1n[nH]c2c1CN(C(=O)c1cc3ccccc3[nH]1)CC2)C1(COC(F)F)CC1 [Example 318, N-{1-[(difluoromethoxy)methyl]cyclopropyl}-5-(1H-indole-2-carbonyl)-N-methyl-1H,4H,5H,6H,7H-pyrazolo[4,3-c]pyridine-3-carboxamide]	> 6.00	> 5.30	> 10 µM	
COCC1(N(C)C(=O)c2n[nH]c3c2CN(C(=O)c2cc4c(C(F)(F)F)cccc4[nH]2)CC3)CC1 [Example 302, N-[1-(methoxymethyl)cyclopropyl]-N-methyl-5-[4-(trifluoromethyl)-1H-indole-2-carbonyl]-1H,4H,5H,6H,7H-pyrazolo[4,3-c]pyridine-3-carboxamide]	> 6.00	> 5.30	> 10 µM	
CN(C(=O)c1n[nH]c2c1CN(C(=O)c1cc3ccccc3[nH]1)CC2)C1(COCC(F)(F)F)CC1 [Example 359, 5-(1H-indole-2-carbonyl)-N-methyl-N-{1-[(2,2,2-trifluoroethoxy)methyl]cyclopropyl}-1H,4H,5H,6H,7H-pyrazolo[4,3-c]pyridine-3-carboxamide]	> 6.00	> 5.30	> 10 µM	
